Measurements as given in ChEMBL document CHEMBL1201862, “PubChem BioAssay data set” (2004).
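Following 48 hours of exposure in 96-well plates, responses at five concentrations were used to interpolate endpoints linearly. GI50 = concentration required for 50% inhibition of growth.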 Activity calls are given as the source filed them. Rule as the data show it: active = GI50 up to about 1.1 µM and inactive = higher.

Key:
Test in all cases: NCI-60 cell line screen, 48 h
786-0 = tested on: 786-0
A498 = tested on: A498
A549 = tested on: A549
ACHN = tested on: ACHN
CAKI-1 = tested on: CAKI-1
CCRF-CEM = tested on: CCRF-CEM
COLO 205 = tested on: COLO 205
DLD-1 = tested on: DLD-1
DMS-273 = tested on: DMS-273
EKVX = tested on: EKVX
HCC 2998 = tested on: HCC 2998
HCT-116 = tested on: HCT-116
HCT-15 = tested on: HCT-15
HL-60 = tested on: HL-60
HOP-18 = tested on: HOP-18
HOP-62 = tested on: HOP-62
HOP-92 = tested on: HOP-92
HT-29 = tested on: HT-29
IGROV-1 = tested on: IGROV-1
K562 = tested on: K562
KM-20L2 = tested on: KM-20L2
KM12 = tested on: KM12
LOX IMVI = tested on: LOX IMVI
LXFL 529 = tested on: LXFL 529
M14 = tested on: M14
M19-MEL = tested on: M19-MEL
MOLT-4 = tested on: MOLT-4
Malme-3M = tested on: Malme-3M
NCI-H23 = tested on: NCI-H23
NCI-H460 = tested on: NCI-H460
OVCAR-3 = tested on: OVCAR-3
OVCAR-4 = tested on: OVCAR-4
OVCAR-5 = tested on: OVCAR-5
OVCAR-8 = tested on: OVCAR-8
RPMI-8226 = tested on: RPMI-8226
RXF 393 = tested on: RXF 393
RXF 631 = tested on: RXF 631
SF-268 = tested on: SF-268
SF-295 = tested on: SF-295
SF-539 = tested on: SF-539
SK-MEL-2 = tested on: SK-MEL-2
SK-MEL-5 = tested on: SK-MEL-5
SK-OV-3 = tested on: SK-OV-3
SN12C = tested on: SN12C
SNB-19 = tested on: SNB-19
SNB-75 = tested on: SNB-75
SNB-78 = tested on: SNB-78
SW-620 = tested on: SW-620
TK-10 = tested on: TK-10
U-251 = tested on: U-251
UACC-257 = tested on: UACC-257
UACC-62 = tested on: UACC-62
UO-31 = tested on: UO-31
XF498 = tested on: XF498
DMS-114 = tested on: DMS-114
NCI-H226 = tested on: NCI-H226
SK-MEL-28 = tested on: SK-MEL-28
SR = tested on: SR

Compound: CC1=CCCC(OC(N)=O)C1 (stereo not drawn)
- GI50 (786-0): > 100 µM (inactive)
- GI50 (A498): 32.4 µM (inactive)
- GI50 (A549): > 100 µM (inactive)
- GI50 (ACHN): > 100 µM (inactive)
- GI50 (CAKI-1): > 100 µM (inactive)
- GI50 (CCRF-CEM): > 100 µM (inactive)
- GI50 (COLO 205): > 100 µM (inactive)
- GI50 (DLD-1): > 100 µM (inactive)
- GI50 (DMS-273): > 100 µM (inactive)
- GI50 (EKVX): > 100 µM (inactive)
- GI50 (HCC 2998): > 100 µM (inactive)
- GI50 (HCT-116): > 100 µM (inactive)
- GI50 (HCT-15): > 100 µM
- GI50 (HL-60): > 100 µM (inactive)
- GI50 (HOP-18): > 100 µM (inactive)
- GI50 (HOP-62): > 100 µM (inactive)
- GI50 (HOP-92): 46.2 µM (inactive)
- GI50 (HT-29): > 100 µM (inactive)
- GI50 (IGROV-1): > 100 µM (inactive)
- GI50 (K562): > 100 µM (inactive)
- GI50 (KM-20L2): > 100 µM (inactive)
- GI50 (KM12): > 100 µM (inactive)
- GI50 (LOX IMVI): > 100 µM (inactive)
- GI50 (LXFL 529): > 100 µM (inactive)
- GI50 (M14): > 100 µM (inactive)
- GI50 (M19-MEL): > 100 µM (inactive)
- GI50 (MOLT-4): > 100 µM (inactive)
- GI50 (Malme-3M): > 100 µM (inactive)
- GI50 (NCI-H23): > 100 µM (inactive)
- GI50 (NCI-H460): > 100 µM (inactive)
- GI50 (OVCAR-3): > 100 µM (inactive)
- GI50 (OVCAR-4): > 100 µM (inactive)
- GI50 (OVCAR-5): > 100 µM (inactive)
- GI50 (OVCAR-8): > 100 µM (inactive)
- GI50 (RPMI-8226): > 100 µM (inactive)
- GI50 (RXF 393): > 100 µM (inactive)
- GI50 (RXF 631): > 100 µM (inactive)
- GI50 (SF-268): > 100 µM (inactive)
- GI50 (SF-295): > 100 µM (inactive)
- GI50 (SF-539): > 100 µM (inactive)
- GI50 (SK-MEL-2): > 100 µM (inactive)
- GI50 (SK-MEL-5): > 100 µM (inactive)
- GI50 (SK-OV-3): > 100 µM (inactive)
- GI50 (SN12C): > 100 µM (inactive)
- GI50 (SNB-19): > 100 µM (inactive)
- GI50 (SNB-75): 97.7 µM (inactive)
- GI50 (SNB-78): > 100 µM (inactive)
- GI50 (SW-620): > 100 µM (inactive)
- GI50 (TK-10): > 100 µM (inactive)
- GI50 (U-251): > 100 µM (inactive)
- GI50 (UACC-257): > 100 µM (inactive)
- GI50 (UACC-62): > 100 µM (inactive)
- GI50 (UO-31): > 100 µM (inactive)
- GI50 (XF498): > 100 µM (inactive)

Compound: C=CC(C)(C)[C@@]12CC3C(=O)N[C@@H](Cc4ccccc4)C(=O)N3[C@@H]1N(C(C)=O)c1ccccc12 (stereo partly drawn)
- GI50 (786-0): > 100 µM (inactive)
- GI50 (A498): > 100 µM (inactive)
- GI50 (A549): 74.1 µM (inactive)
- GI50 (ACHN): 63.5 µM (inactive)
- GI50 (CCRF-CEM): 57.1 µM (inactive)
- GI50 (COLO 205): 36.5 µM (inactive)
- GI50 (DLD-1): 66.2 µM (inactive)
- GI50 (DMS-114): 75.3 µM (inactive)
- GI50 (DMS-273): 61.7 µM (inactive)
- GI50 (EKVX): 96.4 µM (inactive)
- GI50 (HCT-116): > 100 µM (inactive)
- GI50 (HCT-15): 58.1 µM
- GI50 (HL-60): 30.3 µM (inactive)
- GI50 (HOP-18): 64 µM (inactive)
- GI50 (HOP-62): > 100 µM (inactive)
- GI50 (HOP-92): 25.2 µM (inactive)
- GI50 (HT-29): 62.2 µM (inactive)
- GI50 (IGROV-1): > 100 µM (inactive)
- GI50 (K562): 49.3 µM (inactive)
- GI50 (KM-20L2): > 100 µM (inactive)
- GI50 (KM12): 77.8 µM (inactive)
- GI50 (LOX IMVI): > 100 µM (inactive)
- GI50 (LXFL 529): 52.6 µM (inactive)
- GI50 (M14): 57.8 µM (inactive)
- GI50 (M19-MEL): 87.5 µM (inactive)
- GI50 (MOLT-4): 27.4 µM (inactive)
- GI50 (Malme-3M): > 100 µM (inactive)
- GI50 (NCI-H226): > 100 µM (inactive)
- GI50 (NCI-H23): > 100 µM (inactive)
- GI50 (NCI-H460): 48.8 µM (inactive)
- GI50 (OVCAR-3): 48.6 µM (inactive)
- GI50 (OVCAR-4): 31.8 µM (inactive)
- GI50 (OVCAR-5): > 100 µM (inactive)
- GI50 (OVCAR-8): 73.5 µM (inactive)
- GI50 (RPMI-8226): 43.2 µM (inactive)
- GI50 (RXF 631): 58.7 µM (inactive)
- GI50 (SF-295): 97.3 µM (inactive)
- GI50 (SF-539): > 100 µM (inactive)
- GI50 (SK-MEL-28): > 100 µM (inactive)
- GI50 (SK-MEL-2): > 100 µM (inactive)
- GI50 (SK-MEL-5): 37.2 µM (inactive)
- GI50 (SK-OV-3): > 100 µM (inactive)
- GI50 (SN12C): 75.3 µM (inactive)
- GI50 (SNB-19): > 100 µM (inactive)
- GI50 (SNB-75): 59.8 µM (inactive)
- GI50 (SNB-78): > 100 µM (inactive)
- GI50 (SR): > 100 µM (inactive)
- GI50 (SW-620): 88.7 µM (inactive)
- GI50 (TK-10): > 100 µM (inactive)
- GI50 (U-251): 93.3 µM (inactive)
- GI50 (UACC-257): 68.4 µM (inactive)
- GI50 (UACC-62): > 100 µM (inactive)
- GI50 (UO-31): 54.8 µM (inactive)
- GI50 (XF498): > 100 µM (inactive)
